The source of these data is ChEMBL document CHEMBL6103607, “Novel Heterocyclic Piperazine Amide Derivatives as Alpha-synuclein PET Ligands for Diagnosis of Parkinson's Disease” (ACS Med Chem Lett, 2025).

Structures are written as SMILES.

The target in the assay is Amyloid-beta precursor protein (Homo sapiens, UniProt P05067). Put plainly: Displacement of [3H]-105 from amyloid-beta (unknown origin) in human brain homogenate assessed as inhibition constant incubated for 90 mins by radioligand binding assay. It is filed as tissue-based. Background: Displacement assays read how much labelled ligand stays bound in the presence of the test substance.
Amyloid-beta precursor protein, sequence (P05067 whole entry): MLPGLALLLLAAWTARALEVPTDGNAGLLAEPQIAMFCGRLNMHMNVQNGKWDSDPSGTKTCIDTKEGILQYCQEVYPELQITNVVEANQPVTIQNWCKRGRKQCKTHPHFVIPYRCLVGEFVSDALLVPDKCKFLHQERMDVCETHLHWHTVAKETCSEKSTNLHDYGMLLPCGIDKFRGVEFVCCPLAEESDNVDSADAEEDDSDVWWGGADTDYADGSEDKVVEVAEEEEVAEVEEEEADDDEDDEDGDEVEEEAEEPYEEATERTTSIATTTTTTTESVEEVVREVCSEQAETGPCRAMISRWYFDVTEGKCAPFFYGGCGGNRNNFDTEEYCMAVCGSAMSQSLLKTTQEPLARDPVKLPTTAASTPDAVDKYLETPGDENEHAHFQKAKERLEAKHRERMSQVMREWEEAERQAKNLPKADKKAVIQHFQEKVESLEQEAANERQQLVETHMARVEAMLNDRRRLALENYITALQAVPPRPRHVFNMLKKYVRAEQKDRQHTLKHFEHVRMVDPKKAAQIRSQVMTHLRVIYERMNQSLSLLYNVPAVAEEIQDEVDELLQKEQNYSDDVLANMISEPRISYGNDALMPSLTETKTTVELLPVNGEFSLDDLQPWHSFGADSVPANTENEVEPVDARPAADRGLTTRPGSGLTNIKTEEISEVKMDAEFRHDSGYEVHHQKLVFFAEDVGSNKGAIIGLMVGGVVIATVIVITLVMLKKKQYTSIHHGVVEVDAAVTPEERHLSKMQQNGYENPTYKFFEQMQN
For `C[C@H]1CN(c2ccc(F)cn2)CCN1c1ncc(NC(=O)c2ccc(N3CC[C@@H](F)C3)nc2)cn1`, the Ki (in general, the equilibrium dissociation constant of an inhibitor or competing ligand from its target) was 12 µM.

Turning to `Cc1cocc1-c1ccc(C(=O)Nc2cnc(N3CCN(c4ccccn4)C[C@@H]3C)nc2)cn1`, the Ki was determined as 10.8 µM.

Turning to `C[C@H]1CN(c2ccccn2)CCN1c1ncc(NC(=O)c2ccc(-n3cccn3)nc2)cn1`, the Ki came to 10.8 µM.

For the molecule `C[C@H]1CN(c2cc([N+](=O)[O-])ccn2)CCN1c1ncc(NC(=O)c2ccc(N3CC(F)(F)C3)nc2)cn1`, the inhibition constant (Ki) stood at 12 µM.

For `COC[C@H]1CN(c2ccccn2)CCN1c1ncc(NC(=O)c2ccc(-n3cccn3)nc2)cn1`, the inhibitory constant (Ki) amounted to 12 µM.

For `C[C@H]1CN(c2ccc(F)cn2)CCN1c1ncc(NC(=O)c2ccc(N3CCC3)nc2)cn1`, the inhibition constant Ki came out at 12 µM.

On to `Cc1ccc(N2C[C@@H](C)N(c3ncc(NC(=O)c4ccc(-c5cncc(F)c5)nc4)cn3)[C@@H](C)C2)nc1`, for which the Ki is 12 µM.

For the molecule `C[C@H]1CN(c2ccc(F)cn2)CCN1c1ncc(NC(=O)c2ccc(N3CC(F)C3)nc2)cn1`, the Ki worked out at 12 µM.
